# In patent US6372727B1, “Metalloporphyrin treatment of neurologic disease” (UAB Research Foundation, priority 1999, dated 2002):
# Experiments:
# [1] = Peroxynitrite-mediated nitration of GYA peptide; assay type: biochemical; conditions: percent of added peroxynitrite
# [2] = Solubility and passage of membranes (statement); assay type: physicochemical
# [3] = 100 μM DCDHF, pH 7.4, 37° C.
# Protocol: A 14.5 mM stock solution of 2,7-dichlorodihydrofluorescein was prepared as described (24). Reaction solutions were prepared in rapidly stirred glass cuvettes and contained 100 μM of DCDHF and 2 μM of the indicated MP in 1.4 ml of 0.1 M potassium phosphate, pH 7.4 at 37° C. Peroxynitrite was added sequentially to rapidly stirred cuvettes; three seperate additions of 2 μM peroxynitrite were made followed by three seperate additions of 4 μM each (see Inset). DCDHF oxidation to dichlorofluorescein (DCF) was monitored at 500 nm (59,500 M^−1cm^−1) (24). Oxidative efficiency was defined as the moles of DCF formed per mole of peroxynitrite added and was determined for each peroxynitrite addition. The values shown represent the average of all six additions.
# Dichlorodihydrofluorescein (DCDHF) undergoes a two-electron oxidation to yield the highly absorbing (and fluorescent) product dichlorofluorescein (DCF). DCDHF has been shown previously to be oxidized at an efficiency as high as 38% of added peroxynitrite (24) and was used here as an indicator to detect any changes in the total oxidative yield of peroxynitrite caused by metalloporphyrins.
smiles,measurement,setting,value
"O=C(O)c1ccc(-c2c3nc(c(-c4ccc(C(=O)O)cc4)c4ccc([n-]4)c(-c4ccc(C(=O)O)cc4)c4nc(c(-c5ccc(C(=O)O)cc5)c5ccc2[n-]5)C=C4)C=C3)cc1.[Fe+2] [FeTCPP, Iron (III) meso 5,10,15,20-tetrakis-(4-carboxy-phenyl) porphyrin]",average efficiency of nitration catalysis,[1],22.7%
same,passage of cell membranes and the blood-brain-barrier,[2],readily cross cell membranes and the blood-brain-barrier
same,water solubility,[2],very water soluble
"C[n+]1ccc(-c2c3nc(c(-c4cc[n+](C)cc4)c4ccc([n-]4)c(-c4cc[n+](C)cc4)c4nc(c(-c5cc[n+](C)cc5)c5ccc2[n-]5)C=C4)C=C3)cc1.[Cl-].[Cl-].[Cl-].[Cl-].[Cl-].[Mn+3] [MnTMPyP, Manganese (III) meso-tetra-(N-methyl-4-pyridyl)-porphine chloride]",increase of total oxidant yield from peroxynitrite,[3],2.2 fold
same,"oxidant yield, of added peroxynitrite",[3],83%
